# Molecular target: T1, PAF-Rezeptor (Homo sapiens, UniProt P25105)
# T1 construct: endogenous in cells; host or cells: intact human platelets from blood of healthy donors, purified on Sepharose CL-2B
# Test: [3H]PAF receptor binding on vital human platelets (competitive displacement of the radioligand)
# Conditions: potency of the (-)-enantiomer relative to the other enantiomer, [³H]PAF binding
# Text: Überraschenderweise wurde gefunden, daß das (-)-Enantiomere 40-mal wirkungsstärker ist. Die pharmakologische Wirkung wurde anhand des nachfolgenden Experiments bestimmt: [³H]PAF-Rezeptor-Bindung an vitalen humanen Blutplättchen
# Bestimmt wird die konkurrierende Wechselwirkung von Prüfsubstanzen (hier PAF-Antagonisten) mit der bekannten Wechselwirkung des Radioliganden [³H]PAF zum gleichen Rezeptor. Die Bindungsstudien wurden an vitalem menschlichen Thrombozyten vorgenommen. Blutproben von gesunden Spendern wurden mit ACD-Puffer verdünnt und zentrifugiert (15 Min., 160 x g). Das blättchenreiche Plasma wird durch Chromatographie an Sepharose CL-2B [Zum Eluieren: HEPES-Puffer, pH 7,4 20°C] gereinigt.
# Definierte Mengen [z.B. 800 µl] der Blättchensuspension wurden 90 Min. bei Raumtemperatur inkubiert, d.h. vermischt mit: • a) einer […] [³H]PAF-Lösung, verdünnt mit Puffer. • b) mit einer 30 pmolaren [³H] PAF-Lösung, die gleichzeitig eine µmolare (nicht markierte) PAF-Lösung enthält, • c) mit der 30 pmolaren [³H]PAF-Lösung und den Lösungen der Prüfsubstanzen (unterschiedliche Konzentrationen) • a) Dient zur Ermittlung der totalen Bindung, • b) dient zur Ermittlung der unspezifischen Bindung.
# Die Reaktion wurde durch Vakuumfiltration abgestoppt. Die Filter mit den Blutplättchen werden mit Szintilationsflüssigkeit versetzt und die verbliebene Radioaktivität in einem Counter gemessen. […]
# T1 sequence (P25105 whole entry): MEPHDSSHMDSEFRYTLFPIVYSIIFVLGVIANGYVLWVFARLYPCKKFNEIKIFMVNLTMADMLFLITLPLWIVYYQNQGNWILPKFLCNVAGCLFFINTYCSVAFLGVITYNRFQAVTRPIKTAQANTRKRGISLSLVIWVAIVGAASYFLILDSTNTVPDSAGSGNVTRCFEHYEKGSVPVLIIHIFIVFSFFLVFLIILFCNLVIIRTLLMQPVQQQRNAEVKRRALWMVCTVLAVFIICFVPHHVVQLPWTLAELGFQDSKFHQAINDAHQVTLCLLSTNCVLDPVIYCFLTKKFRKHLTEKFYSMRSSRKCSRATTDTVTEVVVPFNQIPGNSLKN
compound,measurement,value
"Cc1nnc2n1-c1sc(CCc3ccc(CC(C)C)cc3)cc1C(c1ccccc1Cl)=NC2C (single isomer, unassigned; (-)) [(-)Enantiomer, (-)-4-(2-Chlorphenyl)-2-[2-(4-isobutylphenyl)ethyl]-6,9-dimethyl-6H-thieno[3,2-f][1,2,4]triazolo[4,3-a][1,4]diazepin]",wirkungsstärker,40 mal

# Reference: patent EP0428854A2, “Process for the preparation of 4-(4-isobutylphenyl)-butyraldehyde” (BOEHRINGER INGELHEIM KG, priority 1989, dated 1991)
